From PubChem BioAssay (NCI)
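Compound exposure: 48 hours, 5 concentrations, 96-well plates. Abbreviation: GI50, concentration required for 50% inhibition of growth. Definition used: TGI = concentration required for complete inhibition of growth.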

Assays:
Assay in all cases: NCI tumour cell line growth inhibition, 48 h; in the data active = GI50 below about 0.43 µM; inactive = the rest
SF-268 CNS = test system: SF-268 CNS
PC-3 prostate = test system: PC-3 prostate
HOP-62 NSCLC = test system: HOP-62 NSCLC
NCI-H226 lung = test system: NCI-H226 lung
MCF7 breast = test system: MCF7 breast
HCT-15 colon = test system: HCT-15 colon
RXF 393 renal = test system: RXF 393 renal
SW-620 colon = test system: SW-620 colon
SF-539 CNS = test system: SF-539 CNS
SK-OV-3 ovarian = test system: SK-OV-3 ovarian
SNB-19 CNS = test system: SNB-19 CNS
U251 CNS = test system: U251 CNS
OVCAR-8 ovarian = test system: OVCAR-8 ovarian
HCT-116 colon = test system: HCT-116 colon
SK-MEL-28 melanoma = test system: SK-MEL-28 melanoma
MDA-MB-231 breast = test system: MDA-MB-231 breast
M14 melanoma = test system: M14 melanoma
KM12 colon = test system: KM12 colon
786-0 renal = test system: 786-0 renal
MOLT-4 leukemia = test system: MOLT-4 leukemia
HS 578T breast = test system: HS 578T breast
NCI-H522 lung = test system: NCI-H522 lung
A549 NSCLC = test system: A549 NSCLC
RPMI-8226 leukemia = test system: RPMI-8226 leukemia
DU-145 prostate = test system: DU-145 prostate
UACC-62 melanoma = test system: UACC-62 melanoma
SK-MEL-5 melanoma = test system: SK-MEL-5 melanoma
HT29 colon = test system: HT29 colon
T-47D breast = test system: T-47D breast
LOX IMVI melanoma = test system: LOX IMVI melanoma
UO-31 renal = test system: UO-31 renal
CAKI-1 renal = test system: CAKI-1 renal
UACC-257 melanoma = test system: UACC-257 melanoma
EKVX NSCLC = test system: EKVX NSCLC
BT-549 breast = test system: BT-549 breast
TK-10 renal = test system: TK-10 renal
K-562 leukemia = test system: K-562 leukemia
NCI-H460 lung = test system: NCI-H460 lung
IGROV1 ovarian = test system: IGROV1 ovarian
ACHN renal = test system: ACHN renal
OVCAR-4 ovarian = test system: OVCAR-4 ovarian
CCRF-CEM leukemia = test system: CCRF-CEM leukemia
COLO 205 colon = test system: COLO 205 colon
SK-MEL-2 melanoma = test system: SK-MEL-2 melanoma
OVCAR-3 ovarian = test system: OVCAR-3 ovarian
SF-295 CNS = test system: SF-295 CNS
MALME-3M melanoma = test system: MALME-3M melanoma
MDA-MB-435 = test system: MDA-MB-435
SNB-75 CNS = test system: SNB-75 CNS
HL-60(TB) leukemia = test system: HL-60(TB) leukemia
NCI-H23 lung = test system: NCI-H23 lung
OVCAR-5 ovarian = test system: OVCAR-5 ovarian
SN12C renal = test system: SN12C renal
NCI/ADR-RES ovarian = test system: NCI/ADR-RES ovarian
SR leukemia = test system: SR leukemia
HCC-2998 colon = test system: HCC-2998 colon
A498 renal = test system: A498 renal

O=C(O)CN(CCN(CC(=O)O)CC(=O)O)CC(=O)O
> 100 µM: TGI (SF-268 CNS) | TGI (PC-3 prostate) | TGI (HOP-62 NSCLC) | TGI (NCI-H226 lung) | TGI (MCF7 breast) | TGI (HCT-15 colon) | TGI (RXF 393 renal) | TGI (SW-620 colon) | TGI (SF-539 CNS) | TGI (SK-OV-3 ovarian) | TGI (SNB-19 CNS) | TGI (U251 CNS) | TGI (OVCAR-8 ovarian) | TGI (HCT-116 colon) | TGI (SK-MEL-28 melanoma) | TGI (MDA-MB-231 breast) | TGI (M14 melanoma) | TGI (KM12 colon) | TGI (786-0 renal) | TGI (MOLT-4 leukemia) | TGI (HS 578T breast) | TGI (NCI-H522 lung) | TGI (A549 NSCLC) | TGI (RPMI-8226 leukemia) | TGI (DU-145 prostate) | TGI (UACC-62 melanoma) | TGI (SK-MEL-5 melanoma) | TGI (HT29 colon) | TGI (T-47D breast) | TGI (LOX IMVI melanoma) | TGI (UO-31 renal) | TGI (CAKI-1 renal) | TGI (UACC-257 melanoma) | TGI (EKVX NSCLC) | TGI (BT-549 breast) | TGI (TK-10 renal) | TGI (K-562 leukemia) | TGI (NCI-H460 lung) | TGI (IGROV1 ovarian) | TGI (ACHN renal) | TGI (OVCAR-4 ovarian) | TGI (CCRF-CEM leukemia) | TGI (COLO 205 colon) | TGI (SK-MEL-2 melanoma) | TGI (OVCAR-3 ovarian) | TGI (SF-295 CNS) | TGI (MALME-3M melanoma) | TGI (MDA-MB-435) | TGI (SNB-75 CNS)
inactive: GI50 (SF-268 CNS) > 100 µM | GI50 (PC-3 prostate) > 100 µM | GI50 (HOP-62 NSCLC) > 100 µM | GI50 (NCI-H226 lung) > 100 µM | GI50 (MCF7 breast) > 100 µM | GI50 (HCT-15 colon) > 100 µM | GI50 (RXF 393 renal) > 100 µM | GI50 (SW-620 colon) > 100 µM | GI50 (SF-539 CNS) > 100 µM | GI50 (SK-OV-3 ovarian) > 100 µM | GI50 (SNB-19 CNS) > 100 µM | GI50 (U251 CNS) > 100 µM | GI50 (OVCAR-8 ovarian) > 100 µM | GI50 (HCT-116 colon) > 100 µM | GI50 (SK-MEL-28 melanoma) > 100 µM | GI50 (MDA-MB-231 breast) > 100 µM | GI50 (M14 melanoma) > 100 µM | GI50 (KM12 colon) > 100 µM | GI50 (786-0 renal) > 100 µM | GI50 (MOLT-4 leukemia) > 100 µM | GI50 (HS 578T breast) > 100 µM | GI50 (NCI-H522 lung) > 100 µM | GI50 (A549 NSCLC) > 100 µM | GI50 (RPMI-8226 leukemia) > 100 µM | GI50 (DU-145 prostate) > 100 µM | GI50 (UACC-62 melanoma) > 100 µM | GI50 (SK-MEL-5 melanoma) > 100 µM | GI50 (HT29 colon) > 100 µM | GI50 (T-47D breast) > 100 µM | GI50 (LOX IMVI melanoma) > 100 µM | GI50 (UO-31 renal) > 100 µM | GI50 (CAKI-1 renal) > 100 µM | GI50 (UACC-257 melanoma) > 100 µM | GI50 (EKVX NSCLC) > 100 µM | GI50 (BT-549 breast) > 100 µM | GI50 (TK-10 renal) > 100 µM | GI50 (K-562 leukemia) > 100 µM | GI50 (NCI-H460 lung) > 100 µM | GI50 (IGROV1 ovarian) > 100 µM | GI50 (ACHN renal) > 100 µM | GI50 (OVCAR-4 ovarian) > 100 µM | GI50 (CCRF-CEM leukemia) > 100 µM | GI50 (COLO 205 colon) > 100 µM | GI50 (SK-MEL-2 melanoma) > 100 µM | GI50 (OVCAR-3 ovarian) > 100 µM | GI50 (SF-295 CNS) > 100 µM | GI50 (MALME-3M melanoma) > 100 µM | GI50 (MDA-MB-435) > 100 µM | GI50 (SNB-75 CNS) > 100 µM

S=c1sc2c(s1)SCc1cccc(n1)CSc1sc(=S)sc1SCc1cccc(n1)CS2
> 100 µM: TGI (SF-268 CNS) | TGI (PC-3 prostate) | TGI (HOP-62 NSCLC) | TGI (HL-60(TB) leukemia) | TGI (NCI-H226 lung) | TGI (HCT-15 colon) | TGI (SW-620 colon) | TGI (SF-539 CNS) | TGI (NCI-H23 lung) | TGI (SK-OV-3 ovarian) | TGI (SNB-19 CNS) | TGI (U251 CNS) | TGI (OVCAR-8 ovarian) | TGI (HCT-116 colon) | TGI (SK-MEL-28 melanoma) | TGI (OVCAR-5 ovarian) | TGI (SN12C renal) | TGI (NCI/ADR-RES ovarian) | TGI (MDA-MB-231 breast) | TGI (M14 melanoma) | TGI (SR leukemia) | TGI (KM12 colon) | TGI (786-0 renal) | TGI (MOLT-4 leukemia) | TGI (HS 578T breast) | TGI (NCI-H522 lung) | TGI (A549 NSCLC) | TGI (HCC-2998 colon) | TGI (RPMI-8226 leukemia) | TGI (DU-145 prostate) | TGI (UACC-62 melanoma) | TGI (SK-MEL-5 melanoma) | TGI (HT29 colon) | TGI (T-47D breast) | TGI (LOX IMVI melanoma) | TGI (UO-31 renal) | TGI (CAKI-1 renal) | TGI (UACC-257 melanoma) | TGI (EKVX NSCLC) | TGI (BT-549 breast) | TGI (TK-10 renal) | TGI (K-562 leukemia) | TGI (NCI-H460 lung) | TGI (IGROV1 ovarian) | TGI (A498 renal) | TGI (ACHN renal) | TGI (CCRF-CEM leukemia) | TGI (COLO 205 colon) | TGI (SK-MEL-2 melanoma) | TGI (OVCAR-3 ovarian) | TGI (SF-295 CNS) | TGI (MALME-3M melanoma) | TGI (MDA-MB-435) | TGI (SNB-75 CNS)
